Assay results from patent US9725468B2, “C5-spiro iminothiazine dioxides as BACE inhibitors, compositions, and their use” (Merck Sharp & Dohme Corp., priority 2013, dated 2017).

Columns and labels:
[1] = target: soluble human BACE1 catalytic domain (Homo sapiens, UniProt P56817); experiment: BACE1 HTRF FRET Assay; type: biochemical; conditions: Ki calculated from IC50 using the Cheng-Prusoff equation; QSY7-APPswe-Eu substrate 200 nM, pH 5.0
Text: Na^+-Acetate pH 5.0; 1% Brij-35; Glycerol; Dimethyl Sulfoxide (DMSO); Recombinant human soluble BACE1 catalytic domain (>95% pure); APP Swedish mutant peptide substrate (QSY7-APP^swe-Eu): QSY7-EISEVNLDAEFC-Europium-amide.
A homogeneous time-resolved FRET assay can be used to determine IC50 values for inhibitors of the soluble human BACE1 catalytic domain. This assay monitors the increase of 620 nm fluorescence that resulted from BACE1 cleavage of an APPswedish APP^swe mutant peptide FRET substrate (QSY7-EISEVNLDAEFC-Europium-amide). This substrate contains an N-terminal QSY7 moiety that serves as a quencher of the C-terminal Europium fluorophore (620 nm Em). In the absence of enzyme activity, 620 nm fluorescence is low in the assay and increased linearly over 3 hours in the presence of uninhibited BACE1 enzyme. Inhibition of BACE1 cleavage of the QSY7-APP^swe-Eu substrate by inhibitors is manifested as a suppression of 620 nm fluorescence.
Varying concentrations of inhibitors at 3× the final desired concentration in a volume of 10 ul are preincubated with purified human BACE1 catalytic domain (3 nM in 10 μl) for 30 minutes at 30° C. in reaction buffer containing 20 mM Na-Acetate pH 5.0, 10% glycerol, 0.1% Brij-35 and 7.5% DSMO. Reactions are initiated by addition of 10 μl of 600 nM QSY7-APP^swe-Eu substrate (200 nM final) to give a final reaction volume of 30 μl in a 384 well Nunc HTRF plate. The reactions are incubated at 30° C. for 1.5 hours. The 620 nm fluorescence is then read on a Rubystar HTRF plate reader (BMG Labtechnologies) using a 50 millisecond delay followed by a 400 millisecond acquisition time window. Inhibitor IC50 values are derived from non-linear regression analysis of concentration response curves. Ki values are then calculated from IC50 values using the Cheng-Prusoff equation using a previously determined […] for the QSY7-APP^swe-Eu substrate at BACE1.

[2] = target: T1, purified human autoBACE-2 (Homo sapiens, UniProt Q9Y5Z0); experiment: BACE-2 Assay (BACE-HTRF assay); type: biochemical; conditions: Ki calculated from IC50 using the Cheng-Prusoff equation; QSY7-EISEVNLDAEFC-Eu-amide substrate 200 nM, pH 5.0; read-out: BACE2 Ki
T1 sequence (Q9Y5Z0 63-473 limits assumed): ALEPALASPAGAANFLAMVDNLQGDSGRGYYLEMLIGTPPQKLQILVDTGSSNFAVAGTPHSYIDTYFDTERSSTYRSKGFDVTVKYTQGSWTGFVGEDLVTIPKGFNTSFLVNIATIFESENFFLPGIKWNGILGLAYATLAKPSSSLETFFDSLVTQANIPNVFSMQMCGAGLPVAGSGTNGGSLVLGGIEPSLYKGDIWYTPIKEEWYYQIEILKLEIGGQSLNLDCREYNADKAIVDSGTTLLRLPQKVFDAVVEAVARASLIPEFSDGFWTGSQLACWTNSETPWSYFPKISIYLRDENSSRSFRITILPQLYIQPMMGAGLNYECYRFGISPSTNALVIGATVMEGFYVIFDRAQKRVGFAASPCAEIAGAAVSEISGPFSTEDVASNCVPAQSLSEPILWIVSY
Description: Inhibitor ICsos at purified human autoBACE-2 are determined in a time-resolved endpoint proteolysis assay that measures hydrolysis of the QSY7-EISEVNLDAEFC-Eu-amide FRET peptide substrate (BACE-HTRF assay). BACE-mediated hydrolysis of this peptide results in an increase in relative fluorescence (RFU) at 620 nm after excitation with 320 nm light. Inhibitor compounds, prepared at 3× the desired final concentration in 1×BACE assay buffer (20 mM sodium acetate pH 5.0, 10% glycerol, 0.1% Brij-35) supplemented with 7.5% DMSO are preincubated with an equal volume of autoBACE-2 enzyme diluted in 1×BACE assay buffer (final enzyme concentration 1 nM) in black 384-well NUNC plates for 30 minutes at 30° C. The assay is initiated by addition of an equal volume of the QSY7-EISEVNLDAEFC-Eu-amide substrate (200 nM final concentration, […]) prepared in 1×BACE assay buffer supplemented with 7.5% DMSO and incubated for 90 minutes at 30° C. DMSO is present at 5% final concentration in the assay. Following laser excitation of sample wells at 320 nm, the fluorescence signal at 620 nm is collected for 400 ms following a 50 μs delay on a RUBYstar HTRF plate reader (BMG Labtechnologies). Raw RFU data is normalized to maximum (1.0 nM BACE/DMSO) and minimum (no enzyme/DMSO) RFU values. IC50s are determined by nonlinear regression analysis (sigmoidal dose response, variable slope) of percent inhibition data with minimum and maximum values set to 0 and 100 percent respectively. Similar IC50s are obtained when using raw RFU data. The Ki values are calculated from the IC50 using the Cheng-Prusoff equation.

soluble human BACE1 catalytic domain, sequence (P56817 75-416 limits assumed): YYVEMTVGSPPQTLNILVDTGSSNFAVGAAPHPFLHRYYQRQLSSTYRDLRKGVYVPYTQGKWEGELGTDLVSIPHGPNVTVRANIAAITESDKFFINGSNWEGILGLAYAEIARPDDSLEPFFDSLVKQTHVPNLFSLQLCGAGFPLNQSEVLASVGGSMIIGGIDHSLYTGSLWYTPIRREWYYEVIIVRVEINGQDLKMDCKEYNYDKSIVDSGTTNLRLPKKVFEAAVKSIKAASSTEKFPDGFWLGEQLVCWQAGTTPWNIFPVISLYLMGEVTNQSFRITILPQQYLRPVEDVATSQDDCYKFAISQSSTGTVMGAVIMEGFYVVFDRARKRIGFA

Ki [1] [nM]	Ki [2] [nM]	Compound
10	51	C#CCOc1ccc(C(=O)Nc2ccc3c(c2)[C@]2(CCC3)CS(=O)(=O)C(C)(C)C(=N)N2)nc1 [Example G-7]
8	30	CC1(C)C(=N)N[C@@]2(CCCc3ccc(NC(=O)c4ccc(C(F)(F)F)cn4)cc32)CS1(=O)=O [Example G-24]
18	7	CC1(C)C(=N)N[C@@]2(CCCc3ccc(NC(=O)c4ccc(OCF)cn4)cc32)CS1(=O)=O [Example G-18]
138	1120	CC1(C)C(=N)N[C@@]2(CCCc3ccc(NC(=O)c4cn5cc(C#N)ccc5n4)cc32)CS1(=O)=O [Example G-23]
2	3	Cc1cc(C#N)cnc1C(=O)Nc1ccc2c(c1)[C@]1(CCC2)CS(=O)(=O)C(C)(C)C(=N)N1 [Example G-10]
7	20	C#CCOc1cnc(C(=O)Nc2ccc3c(c2)[C@]2(CCC3)CS(=O)(=O)C(C)(C)C(=N)N2)cn1 [Example G-5]
160	161	CC1(C)C(=N)N[C@@]2(CCCc3ccc(NC(=O)c4ncc(C(F)(F)F)cn4)cc32)CS1(=O)=O [Example G-22]
12	22	CC1(C)C(=N)N[C@@]2(CCCc3ccc(NC(=O)c4ccc(OC(F)F)cn4)cc32)CS1(=O)=O [Example G-15]
21	3	Cc1nc(C(=O)Nc2ccc3c(c2)[C@]2(CCC3)CS(=O)(=O)C(C)(C)C(=N)N2)co1 [Example G-19]
92	57	COc1cnc(C(=O)Nc2ccc3c(c2)[C@]2(CCC3)CS(=O)(=O)C(C)(C)C(=N)N2)cn1 [Example G-11]
13	51	CC1(C)C(=N)N[C@@]2(CCCc3ccc(NC(=O)c4ccc(OC(F)(F)F)cn4)cc32)CS1(=O)=O [Example G-16]

Second part, the compound before the results:

Compound	Ki [1] [nM]	Ki [2] [nM]
CC1(C)C(=N)N[C@@]2(COCc3ccc(NC(=O)c4ccn(C(F)F)n4)cc32)CS1(=O)=O [Example E-7]	12	2
CC1(C)C(=N)N[C@@]2(COCc3ccc(NC(=O)c4ccc(C#N)cn4)cc32)CS1(=O)=O [Example E-14]	11	35
CC1(C)C(=N)N[C@@]2(CCOc3ccc(NC(=O)c4ccc(OC(F)(F)F)cn4)cc32)CS1(=O)=O [Example C-11]	10	41
CC1(C)C(=N)N[C@@]2(CCOc3ccc(NC(=O)c4ccc(F)cn4)cc32)CS1(=O)=O [Example C-9]	33	5
CC1(C)C(=N)N[C@@]2(COCc3ccc(NC(=O)c4cnc(C(F)(F)F)cn4)cc32)CS1(=O)=O [Example E-21]	231	583
CC1(C)C(=N)N[C@@]2(COCc3ccc(NC(=O)c4cnc(OCC(F)(F)F)cn4)cc32)CS1(=O)=O [Example E-16]	101	402
Cc1nc(C(=O)Nc2ccc3c(c2)[C@]2(COC3)CS(=O)(=O)C(C)(C)C(=N)N2)co1 [Example E-23]	66	7
CC1(C)C(=N)N[C@@]2(CCCc3ccc(NC(=O)c4ccc(Cl)cn4)cc32)CS1(=O)=O [Example F-1]	11	3
Cc1cc(C#N)cnc1C(=O)Nc1ccc2c(c1)[C@]1(COC2)CS(=O)(=O)C(C)(C)C(=N)N1 [Example E-5]	6	8
CC1(C)C(=N)N[C@@]2(COCc3ccc(NC(=O)c4ccc(F)cn4)cc32)CS1(=O)=O [Example E-13]	127	17
CC1(C)C(=N)N[C@@]2(CCOc3ccc(NC(=O)c4cc5ccccn5n4)cc32)CS1(=O)=O [Example C-5]	223	49
COCC(=O)Nc1ccc2c(c1)[C@]1(CCO2)CS(=O)(=O)C(C)(C)C(=N)N1 [Example B-3]	391	59
Cc1nc(C(=O)Nc2ccc3c(c2)[C@]2(CCO3)CS(=O)(=O)C(C)(C)C(=N)N2)no1 [Example C-7]	47	4
CC1(C)C(=N)N[C@@]2(COCc3ccc(NC(=O)c4cnsn4)cc32)CS1(=O)=O [Example E-9]	171	23
COc1cnc(C(=O)Nc2ccc3c(c2)[C@]2(COC3)CS(=O)(=O)C(C)(C)C(=N)N2)c(C)c1 [Example E-11]	59	5
CC1(C)C(=N)N[C@@]2(CCOc3ccc(NC(=O)c4ncc(Cl)cc4F)cc32)CS1(=O)=O [Example C-17]	8	2
CC1(C)C(=N)N[C@@]2(CCOc3ccc(NC(=O)C(F)F)cc32)CS1(=O)=O [Example B-4]	1280	115
C#CCOc1cnc(C(=O)Nc2ccc3c(c2)[C@]2(CCO3)CS(=O)(=O)C(C)(C)C(=N)N2)cn1 [Example C-3]	3	14
CC1(C)C(=N)N[C@@]2(CCOc3ccc(NC(=O)c4ccc(C#N)cn4)cc32)CS1(=O)=O [Example C-15]	3	9
CC1(C)C(=N)N[C@@]2(COCc3ccc(NC(=O)c4ccc(OC(F)F)cn4)cc32)CS1(=O)=O [Example E-18]	34	76
C#CCOc1ccc(C(=O)Nc2ccc3c(c2)[C@]2(CCO3)CS(=O)(=O)C(C)(C)C(=N)N2)nc1 [Example C-19]	7	48
CC1(C)C(=N)N[C@@]2(CCOc3ccc(NC(=O)c4ccc(C(F)(F)F)cn4)cc32)CS1(=O)=O [Example C-6]	10	50
Cc1nc(C(=O)Nc2ccc3c(c2)[C@]2(COC3)CS(=O)(=O)C(C)(C)C(=N)N2)no1 [Example E-8]	281	12
CC1(C)C(=N)N[C@@]2(COCc3ccc(NC(=O)c4ccc(OCF)cn4)cc32)CS1(=O)=O [Example E-24]	57	13
CC#CCOc1ccc(C(=O)Nc2ccc3c(c2)[C@]2(CCO3)CS(=O)(=O)C(C)(C)C(=N)N2)nc1 [Example C-18]	3	45
COc1ccc(C(=O)Nc2ccc3c(c2)[C@]2(CCO3)CS(=O)(=O)C(C)(C)C(=N)N2)nc1 [Example B-2]	58	28
Cc1nc(C(=O)Nc2ccc3c(c2)[C@]2(CCO3)CS(=O)(=O)C(C)(C)C(=N)N2)co1 [Example C-2]	18	3
CC1(C)C(=N)N[C@@]2(CCOc3ccc(NC(=O)c4cnc(C(F)(F)F)cn4)cc32)CS1(=O)=O [Example C-24]	39	184
COc1cnc(C(=O)Nc2ccc3c(c2)[C@]2(COC3)CS(=O)(=O)C(C)(C)C(=N)N2)c(C)n1 [Example E-20]	218	60
C#CCOc1ccc(C(=O)Nc2ccc3c(c2)[C@]2(COC3)CS(=O)(=O)C(C)(C)C(=N)N2)nc1 [Example E-19]	30	185
